Measurements reported in ChEMBL document CHEMBL1201862, “PubChem BioAssay data set” (2004).
Active and inactive are the calls of the source.

How the values were obtained:
[1] = growth suppression of beta-catenin-knockout colon cells, dose response, cell-based, HCT116, human colon tumor (AID 1045); type: functional;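 note: HCT116 colon tumor cells with beta catenin knocked out; cells exposed to compound for 60 hours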
[2] = growth suppression of PTEN-null colon cells, dose response, cell-based, HCT116 PTEN knockout (AID 1047); type: functional;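 note: HCT116 colon tumor cells with PTEN knocked out; cells exposed to compound for 60 hours before readout; potency for loss of cell viability measured by luminescence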
[3] = C. albicans growth with fluconazole, confirmation, fluorescence, retest (AID 2467); type: functional, cell-based
[4] = NIH-3T3 fibroblast cytotoxicity, dose response, cytotoxicity control, cell-based, fluorescence, Alamar Blue, secondary assay (AID 2327); type: functional;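 note: NIH-3T3 mouse fibroblasts cultured with fluconazole at 8 µg/mL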
[5] = cytotoxicity toward NIH3T3 fibroblasts, dose response, counter-screen, cell-based, ATP luminescence, mouse fibroblasts (AID 2010); type: functional;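 note: cells exposed to compound for about 90 hours before reading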
[6] = inhibitors of intracellular T. cruzi replication, confirmation, NIH3T3 host cells, beta-gal luminescence (AID 2044); type: functional, cell-based;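 note: intracellular parasites grown in NIH/3T3 mouse fibroblasts as host cells; luminescent beta-galactosidase reporter signal from transgenic T. cruzi replicating inside host cells; inhibitors lower the luminescence signal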
[7] = control 3'UTR Renilla luciferase suppression, dose response, counter-screen for Shn3 inhibitor project, cell-based, Clone20-Shn3RL, cherry-picked (AID 624133); type: functional
[8] = HepG2 cell cytotoxicity, dose response, cytotoxicity control for Shn3 inhibitor project, CellTiter-Glo, cherry-picked (AID 624134); type: functional, cell-based
[9] = Shn3 3'UTR reporter inhibitors, dose response, cell-based, Clone20 osteoblasts, firefly luciferase, cherry-picked (AID 624132); type: functional;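 note: firefly luciferase luminescence from reporter carrying the Shn3 3'UTR in osteoblasts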
[10] = Luminescence Cell-Based Dose Retest to Confirm Inhibitors of Cancer Stem Cells. [Related pubchem assays (depositor defined):AID2717, AID2721]; type: functional; details: Homo sapiens
INS1 = test: beta cell apoptosis inhibitors, cytokine rescue, dose response, luminescence, retest (AID 449756); type: functional, cell-based; details: Rattus norvegicus;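 note: cell death triggered by IL-1 beta plus TNF-alpha plus IFN-gamma mixture; protective hits raise ATP signal compared with cytokine alone wells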
[11] = molecular target: T1, Rac GTPase-activating protein 1 (Homo sapiens, UniProt Q9H0H5); test: MgcRacGAP GTPase-activating activity inhibitors, confirmation, biochemical, ADP Hunter fluorescence, primary and confirmatory (AID 624330); type: functional
T1 sequence (Q9H0H5 whole entry): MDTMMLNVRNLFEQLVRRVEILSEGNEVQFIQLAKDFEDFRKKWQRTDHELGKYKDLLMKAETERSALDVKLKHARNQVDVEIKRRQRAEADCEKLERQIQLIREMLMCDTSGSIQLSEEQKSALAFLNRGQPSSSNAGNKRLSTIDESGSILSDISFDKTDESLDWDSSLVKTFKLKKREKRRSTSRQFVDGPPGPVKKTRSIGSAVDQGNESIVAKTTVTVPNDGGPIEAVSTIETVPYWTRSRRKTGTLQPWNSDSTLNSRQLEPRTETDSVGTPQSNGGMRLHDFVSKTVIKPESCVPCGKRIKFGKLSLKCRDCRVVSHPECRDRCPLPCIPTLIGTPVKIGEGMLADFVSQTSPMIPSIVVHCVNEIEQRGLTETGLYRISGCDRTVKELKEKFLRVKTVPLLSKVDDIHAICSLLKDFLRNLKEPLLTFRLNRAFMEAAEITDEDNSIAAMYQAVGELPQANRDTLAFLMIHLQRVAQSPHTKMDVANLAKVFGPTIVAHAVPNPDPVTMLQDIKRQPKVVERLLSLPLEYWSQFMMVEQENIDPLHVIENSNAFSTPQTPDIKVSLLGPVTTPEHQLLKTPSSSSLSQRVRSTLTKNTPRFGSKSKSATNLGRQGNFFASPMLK

[12] = inhibitors of firefly luciferase expression or activity, dose response, H4 neuroglioma cells, luminescence (AID 1990); type: functional, cell-based
[13] = inhibitors of SNCA 5'UTR-driven reporter translation, confirmation, H4 neuroglioma cells, luminescence (AID 1988); type: functional, cell-based
[14] = Luminescence Cell-Based Dose Response HTS to Identify Inhibitors of 5'UTR Stem-Loop Driven Prion Protein mRNA Translation in H4 Neuroglioblastoma Cells. [Related pubchem assays: 1827 (Project Summary), 1813 (Primary HTS)]; type: functional
Streptococcus = test: Group A Streptococcus viability loss, dose response, counter-screen for streptokinase expression inhibitor project, luminescence, BacTiterGlo (AID 1915); type: functional, organism-based;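 note: potency for reduction of bacterial viability or growth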
[15] = system: Streptococcus sp. 'group A'; test: growth inhibition of control SK(-) GAS strain, dose response, counter-screen for streptokinase expression inhibitor project, luminescence, kanamycin, BacTiterGlo, confirmation (AID 1900); type: functional, organism-based
Paired box protein Pax-8 = Paired box protein Pax-8 (Homo sapiens, UniProt Q06710); test: inhibitors of PAX8-driven TPO luciferase reporter, dose response, RMG-I cells, cherry-pick (AID 687027); type: functional, cell-based;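 note: luciferase reporter driven by Pax8 target thyroperoxidase promoter measured by SteadyGlo luminescence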
[16] = molecular target: T2, Corticotropin-releasing factor receptor 2/Corticotropin-releasing factor-binding protein (Homo sapiens, UniProt P24387+Q13324); test: Dose Response confirmation of uHTS hits for small molecule antagonists of the CRF-binding protein and CRF-R2 receptor complex.; type: functional; details: read-out: IC50_Mean
T2 sequence (Q13324 whole entry): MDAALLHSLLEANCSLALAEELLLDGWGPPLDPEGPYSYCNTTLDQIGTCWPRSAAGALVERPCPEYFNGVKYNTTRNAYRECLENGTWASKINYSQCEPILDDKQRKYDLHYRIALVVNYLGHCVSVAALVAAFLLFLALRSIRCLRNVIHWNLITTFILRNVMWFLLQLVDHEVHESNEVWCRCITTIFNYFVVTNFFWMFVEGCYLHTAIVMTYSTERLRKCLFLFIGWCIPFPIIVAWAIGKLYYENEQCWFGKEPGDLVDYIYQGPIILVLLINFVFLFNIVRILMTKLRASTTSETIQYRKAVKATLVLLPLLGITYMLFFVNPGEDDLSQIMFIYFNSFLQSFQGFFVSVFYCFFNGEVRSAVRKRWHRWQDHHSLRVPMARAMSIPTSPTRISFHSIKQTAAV
T2 sequence (P24387 whole entry): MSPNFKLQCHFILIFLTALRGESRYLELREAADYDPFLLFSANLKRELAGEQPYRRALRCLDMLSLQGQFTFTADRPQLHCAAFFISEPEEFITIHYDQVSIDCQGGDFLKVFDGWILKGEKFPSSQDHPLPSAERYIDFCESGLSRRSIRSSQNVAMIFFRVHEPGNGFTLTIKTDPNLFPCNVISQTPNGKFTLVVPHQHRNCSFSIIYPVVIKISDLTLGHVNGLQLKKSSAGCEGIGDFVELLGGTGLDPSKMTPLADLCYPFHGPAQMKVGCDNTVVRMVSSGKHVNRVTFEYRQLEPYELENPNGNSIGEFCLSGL

[17] = molecular target: T2, Corticotropin-releasing factor receptor 2/Corticotropin-releasing factor-binding protein; test: activators of CRF receptor 2 with binding protein – uHTS hits, confirmation (AID 602473); type: functional; details: read-out: EC50_Mean
Cytochrome P450 2D6 = Cytochrome P450 2D6 (Homo sapiens, UniProt P10635);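 note: CYP2D6 member of a cytochrome P450 panel assay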
Sequence of Cytochrome P450 2D6 (P10635 whole entry): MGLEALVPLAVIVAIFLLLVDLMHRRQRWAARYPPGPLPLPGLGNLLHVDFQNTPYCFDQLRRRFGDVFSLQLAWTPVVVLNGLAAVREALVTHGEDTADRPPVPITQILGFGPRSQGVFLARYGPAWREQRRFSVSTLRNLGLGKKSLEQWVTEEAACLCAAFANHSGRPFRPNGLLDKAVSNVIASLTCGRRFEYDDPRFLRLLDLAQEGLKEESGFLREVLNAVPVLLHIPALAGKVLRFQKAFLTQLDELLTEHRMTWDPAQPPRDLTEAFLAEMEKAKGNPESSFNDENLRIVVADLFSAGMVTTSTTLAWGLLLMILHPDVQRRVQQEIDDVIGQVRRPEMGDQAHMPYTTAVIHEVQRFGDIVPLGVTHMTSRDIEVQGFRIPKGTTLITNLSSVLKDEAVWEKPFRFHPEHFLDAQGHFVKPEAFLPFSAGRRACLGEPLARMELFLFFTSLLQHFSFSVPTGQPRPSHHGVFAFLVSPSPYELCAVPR

Sequence of Paired box protein Pax-8 (Q06710 whole entry): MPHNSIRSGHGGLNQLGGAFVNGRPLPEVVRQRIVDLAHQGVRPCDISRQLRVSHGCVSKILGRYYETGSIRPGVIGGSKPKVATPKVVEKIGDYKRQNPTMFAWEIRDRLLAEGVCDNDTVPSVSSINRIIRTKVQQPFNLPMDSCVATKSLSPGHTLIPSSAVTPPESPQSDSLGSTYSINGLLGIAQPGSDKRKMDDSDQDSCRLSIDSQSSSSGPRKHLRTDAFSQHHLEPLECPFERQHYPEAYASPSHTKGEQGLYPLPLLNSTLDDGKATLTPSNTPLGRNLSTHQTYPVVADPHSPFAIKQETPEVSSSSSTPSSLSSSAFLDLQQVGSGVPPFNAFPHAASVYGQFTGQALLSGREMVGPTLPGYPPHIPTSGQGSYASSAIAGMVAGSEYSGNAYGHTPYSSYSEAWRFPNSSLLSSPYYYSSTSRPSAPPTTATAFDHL

Cc1ccc2[nH]c(SCC(=O)Nc3cc([N+](=O)[O-])ccc3F)nc2c1
EC50 [1]: 20.6 µM (active)
EC50 [2]: 14 µM (active)

Clc1ccc(OCCn2ccnc2)c2ccccc12
EC50 [3]: 3.78 µM (active)
EC50 [4]: > 150 µM (inactive)
EC50 [5]: > 60 µM (not active)
EC50 [6]: 3.91 µM (active)

CC(C)CC(=O)NCc1ccc2[nH]c3c(c2c1)CCCC3
EC50 [3]: > 38 µM (not active)
EC50 [4]: > 160 µM (inactive)

CCc1ccc(C(=O)NNc2ccc(F)cc2)cc1
EC50 [3]: > 38 µM (not active)
EC50 [4]: 12.2 µM (active)

Cc1onc(-c2ccccc2Cl)c1C(=O)N1CCC(Cc2ccccc2)CC1
AC50 [7]: 4.54 µM (active)
AC50 [8]: 46.3 µM (active)
AC50 [9]: 2.29 µM (active)

O=C(c1ccc(COc2c(F)c(F)cc(F)c2F)o1)N1CCN(c2ccc(Cl)cc2)CC1
EC50 [1]: 11.7 µM (active)
EC50 [2]: 21.5 µM (active)

O=C(NNc1ccccc1)C(CCO)C(=O)NNc1ccccc1
EC50 [3]: > 38 µM (not active)
EC50 [4]: 19.6 µM (active)

CCCC(=O)NC(=S)NNC(=O)c1ccc([N+](=O)[O-])cc1
EC50 [3]: 10.1 µM (active)
EC50 [4]: > 160 µM (inactive)

CCCCCCSc1ccc(-c2nc3ccccn3c2NCCCC)cc1
AC50 [10]: 4.4 µM (active)

COC(=O)c1ccc2c(=O)n(Cc3ccco3)c(SCC(=O)Nc3ccccc3Cl)nc2c1
EC50 [1]: 44.3 µM (active)
EC50 [2]: 37.5 µM (active)

COc1ccc(OC)c(NC(=O)c2cc(-c3cc(Cl)ccc3O)[nH]n2)c1
EC50 [1]: 39.2 µM (active)
EC50 [2]: 36.7 µM (active)

C=CCCc1ccc(C#N)c(SCc2c(C(=O)OCC)c3cc(OC(C)=O)c(Br)cc3n2C)n1
AC50 (INS1): 1.14 µM (active)
AC50 [7]: 2.75 µM (active)
AC50 [8]: 9.37 µM (active)

COc1cc(/C=C/C(=O)OCC(=O)Nc2c(C)n(C)n(-c3ccccc3)c2=O)ccc1O
IC50 [11]: 63.9 µM (active)

COc1cccc(NP(=O)(Oc2ccccc2)Oc2ccccc2)c1
EC50 [12]: > 120 µM (not active)
EC50 [13]: > 120 µM (not active)
AC50 [10]: 0.935 µM (active)
EC50 [14]: 59.4 µM (active)

c1ccc(CC2CCN(Cc3ccccn3)CC2)cc1
IC50 [11]: 216 µM (active)

Cc1cc(C)c(S(=O)(=O)Nc2nnc(C3CCCCC3)s2)c(C)c1
EC50 [3]: 1.93 µM (active)
EC50 [4]: > 160 µM (inactive)

COc1cc(/C=C(/NC(=O)c2ccccc2)C(=O)Nc2ccc(O)cc2)c([N+](=O)[O-])cc1OC
IC50 [11]: 55.7 µM (active)

CCCNc1nc2c(c(=O)n(C)c(=O)n2C)n1Cc1cccc(C)c1
AC50 [7]: 8.85 µM (active)
AC50 [8]: > 70 µM (inactive)
AC50 [9]: 1.91 µM (active)

COc1cc(OC)cc(C(=O)N2CCN(Cc3ccccc3Br)CC2)c1
IC50 [11]: 325 µM (active)

O=C(O)c1ccc(Nc2cnc3ccccc3n2)cc1
EC50 [3]: > 38 µM (not active)
EC50 [4]: > 160 µM (inactive)

O=C(Nc1ccc(F)cc1)c1nc[nH]c1C(=O)Nc1ccc([N+](=O)[O-])cc1
EC50 [1]: 11.2 µM (active)
EC50 [2]: 17.6 µM (active)

CCc1ccc(OCC(=O)NC(N=C(S)Nc2ccc(C)cc2C)C(Cl)(Cl)Cl)cc1 (stereo not given)
AC50 (INS1): 7.48 µM (active)
EC50 (Streptococcus): 8.13 µM (active)
EC50 [15]: 3.3 µM (active)
EC50 [1]: 41.1 µM (active)
EC50 [2]: 30.8 µM (active)

c1ccc(-n2nnnc2Oc2cccc3cccnc23)cc1
EC50 [1]: 20.8 µM (active)
EC50 [2]: 22.6 µM (active)

CCOC(=O)C1=C(CSc2nc3ccccc3s2)NC(=O)NC1c1ccc(OC)cc1 (stereo not given)
AC50 [10]: 5.99 µM (active)

CC1CCN(CCc2nc3cc(NS(=O)(=O)c4ccccc4)ccc3n2C)CC1
AC50 (Paired box protein Pax-8): 12.1 µM (active)

Cc1ccc(NS(=O)(=O)c2cc([N+](=O)[O-])ccc2NN=C(S)Nc2cc(C)ccc2C)c(C)c1
AC50 (INS1): 4.42 µM (active)
AC50 [10]: 1.12 µM (active)

O=C(CNCc1cccs1)Nc1ccc(N2CCCCCC2)cc1
IC50 [11]: 107 µM (active)

CCN(CC)S(=O)(=O)c1cccc(NC(=O)CNc2cccc(S(=O)(=O)N3CCOCC3)c2)c1
AC50 [7]: 2.77 µM (active)
AC50 [8]: 1.08 µM (active)
AC50 [9]: 0.865 µM (active)

CCCOc1ccccc1C1CC(=O)Nc2cc3c(cc21)OCCO3 (stereo not given)
AC50 [7]: 10.2 µM (active)
AC50 [9]: 3.66 µM (active)

O=C(O)c1ccccc1NS(=O)(=O)c1ccc2c(c1)OCCO2
IC50 [16]: > 47.1 µM (inactive)
EC50 [17]: > 53 µM (inactive)

C=CCn1c(SCC(=O)c2[nH]c(C)c(C(=O)OC)c2C)nc2scc(-c3ccc(OC)c(OC)c3)c2c1=O
EC50 [12]: 6.33 µM (active)
AC50 [7]: 24.8 µM (active)
EC50 [13]: 5.89 µM (active)
AC50 [8]: 41.2 µM (active)
EC50 [14]: 8.16 µM (active)
AC50 [9]: 2.01 µM (active)

O=C1Nc2ccccc2C1=Nc1ccc2[nH]c3ccccc3c2c1
IC50 [11]: 16.6 µM (active)

CSc1nc(N)nc2c1ncn2CC(=O)N1CCN(Cc2c(C)cc(C)cc2C)CC1
AC50 (INS1): 1.98 µM (active)
AC50 [7]: 2.02 µM (active)
AC50 [8]: 33.6 µM (active)
AC50 [9]: 0.526 µM (active)

Cc1ccccc1OCCn1cc(C(=S)N2CCCC2)c2ccccc21
AC50 [7]: 20.9 µM (active)
AC50 [8]: > 70 µM (inactive)
AC50 [9]: 24.3 µM (active)

Cc1csc(=O)n1CC(=O)OC(C)C(=O)Nc1ccc(N(C)C)cc1 (stereo not given)
IC50 [11]: 51.4 µM (active)

CC(/C=C/c1ccccc1)=N/NC(=O)CNC(=O)c1ccc2c(c1)OCO2
IC50 [16]: > 47.1 µM (inactive)
AC50 (Cytochrome P450 2D6): 50.1 nM (inconclusive)
EC50 [17]: > 53 µM (inactive)

O=C(C[C@H]1CC[C@@H]2[C@H](COC[C@@H](O)CN2Cc2ccc(F)cc2)O1)NCc1ccccc1Cl
AC50 (Paired box protein Pax-8): 41.2 µM (active)

C[C@@H]1CCCCO[C@H](CN(C)Cc2ccc(C(F)(F)F)cc2)[C@@H](C)CN([C@@H](C)CO)C(=O)c2cc(NS(=O)(=O)c3cccs3)ccc2O1
AC50 (Paired box protein Pax-8): 7.62 µM (active)

O=C(CNS(=O)(=O)c1ccccc1)N/N=C/c1ccc(O)cc1
IC50 [11]: 60 µM (active)

COc1ccc(C(=O)N/N=C(\Cc2ncc[nH]2)c2ccccc2)cc1
EC50 [3]: > 38 µM (not active)
EC50 [4]: 7.31 µM (active)
EC50 [5]: 7.77 µM (active)
EC50 [6]: 1.46 µM (active)

CCN(/C=N/C1=NN(c2cccc(C(F)(F)F)c2)CC1)CC
IC50 [11]: 32.9 µM (active)

COc1cc(/C=N/NC(=O)C(C)Nc2nnc(O)nc2O)ccc1O (stereo not given)
IC50 [11]: 57.2 µM (active)
